Legend:
[1] = cn = amount concentration of the nth substance listed, in mol/dm3; settings: 101 kPa, Liquid, Pycnometric method
[2] = for mass density: 101.33 kPa, Pycnometric method; for mass density / viscosity: Liquid

O=C(c1ccccc1)N(O)c1ccccc1 [N-phenylbenzohydroxamic acid] + C[S+](C)[O-]
mass density [kg/m3], [1]
Settings	c1 = 0.0469	c1 = 0.0938	c1 = 0.1408	c1 = 0.1877	c1 = 0.2347	c1 = 0.2816	c1 = 0.3286	c1 = 0.3755	c1 = 0.4225	c1 = 0.4694
298.15 K	1097.23	1098.39	1098.59	1099.36	1100.14	1100.75	1101.46	1102.02	1102.75	1102.8
303.15 K	1093.69	1094.33	1094.95	1096.03	1097.27	1098.29	1098.91	1099.88	1100.55	1100.96
308.15 K	1089.07	1090.08	1091.61	1091.83	1093.14	1094.08	1095.64	1096.52	1097.67	1098.81
313.15 K	1084.72	1086.26	1086.93	1087.56	1088.34	1089.59	1090.74	1091.97	1093.11	1094.24
318.15 K	1078.8	1080.58	1081.55	1082.82	1083.33	1084.33	1085.8	1086.86	1087.92	1089.02

C[S+](C)[O-] [dimethyl sulfoxide]
[2]
Settings	mass density [kg/m3]	viscosity [mPa·s]
298.15 K	1094.75	1.993
303.15 K	1090.76	1.801
308.15 K	1086.06	1.652
313.15 K	1080.45	1.516
318.15 K	1075.26	1.398

O=C(c1ccccc1)N(O)c1ccccc1 [N-phenylbenzohydroxamic acid]
Settings	Normal melting temperature [°C]
[2], Crystal, visual observation	121.00

From the NIST ThermoML archive (doi:10.1021/je7006956)
